Assay [1] has as its system MDA-N. In words: inhibition of tumour cell growth, NCI panel, 48 h.
For assay [2], the system named is Hs-578T. In words: inhibition of tumour cell growth, NCI panel, 48 h.

Each structure is given as a SMILES string.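 Method: 48-hour compound exposure of cells in 96-well plates, five concentrations, linear interpolation of endpoints. Here, GI50 denotes the concentration required for 50% inhibition of growth.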 Activity calls are given as the source filed them. No stated cut-off is given here; in the data, active = GI50 up to about 1.1 µM and inactive = higher. Where a SMILES comes first, the peptide text is derived from it. The star is where a group is joined. Cbz = O=C(OCc1ccccc1)*; NHNH2 = NN* A value given as a limit tells only on which side of the number the result lay.

As to `O=C1c2ccccc2-c2nc(-c3ccccc3)cc3c2c1nc1ccccc13`, the GI50 was 1.89 µM (inactive) in assay [1] and 22.6 µM (inactive) in assay [2].

Take `Brc1cccc(C2(CCCC3(c4cccc(Br)n4)OCCO3)OCCO2)n1`: in assay [1], the GI50 was > 100 µM (inactive).

Turning to `O=c1c2cc(-c3ccccc3)sc2nc2n1N=C(c1ccccc1)CS2`, the GI50 in assay [1] was 34.9 µM (inactive); in assay [2], 8.63 µM (inactive).

`CC1=NN(c2nc(N)nc(CSCc3nc(N)nc(N(C)C)n3)n2)C(C)(C)C1`: in assay [2], the GI50 was > 100 µM (inactive).

Consider `C[C@]12C[C@@H](OC(=O)[C@]1(C)O)[C@@H]([C@]1(O)CC[C@H]3[C@@H]4C[C@H]5O[C@]56C[C@H]5O[C@H]5C(=O)[C@]6(C)[C@H]4CC[C@@]31C)C2`, for which the GI50 in assay [1] and in assay [2] was > 50 µM (inactive) each time.

For `COC(=O)c1c(C)[nH]c2c1cc(O)c1nc(C)c(C)nc12`, the GI50 in assay [1] was > 100 µM (inactive); in assay [2] it was 45.9 µM (inactive).

For `CC(=O)C1(C(=O)C(=[N+]=[N-])S(=O)(=O)c2ccccc2)CC1`, the GI50 in assay [1] and in assay [2] was > 100 µM (inactive) each time.

In the case of `CCOC(O)(NC(=O)C(C(F)(F)F)C(F)(F)F)C(F)(F)F` (centres undefined), the GI50 in assay [1] and in assay [2] was > 100 µM (inactive) throughout.

Consider `CC(C)(C)OC(=O)NCC(=O)N(CCc1ccc(Cl)c(Cl)c1)CCN1CCCC1`, for which the results for the GI50 in assay [1] and in assay [2] were 14.3 µM (inactive) and 18.8 µM (inactive), respectively.

Take `COc1ccc(OC)c2sc(N3C(=O)/C(=C/c4cccc([N+](=O)[O-])c4)N=C3c3ccccc3)nc12`: the results for the GI50 in assay [1] and in assay [2] were 32.4 µM (inactive) and 51.9 µM (inactive), respectively.

Turning to `COc1cccc(-c2cc(=O)c3cc(N4CCCCC4)ccc3[nH]2)c1`, the figures for the GI50 in assay [1] and in assay [2] were < 0.01 µM (active) and < 0.014 µM (active), respectively.

Consider `O=S1(=O)OCCOS(=O)(=O)C1C1c2ccccc2-c2ccccc21`, for which the GI50 is 36.7 µM (inactive) in assay [1] and 44.9 µM (inactive) in assay [2].

For `COC(=O)C[C@H](COCc1ccccc1)NC(=O)C[C@H](COCc1ccccc1)NC(=O)OC(C)(C)C`, in assay [2], the GI50 was 26.4 µM (inactive).

For `CCOC(=O)c1c(-c2ccc(Br)cc2)ccn1C`, the GI50 in assay [1] and in assay [2] was > 10 µM (inactive) throughout.

On to `CC(=O)O[C@H]1[C@@H](N2CCOCC2)C[C@H]2[C@@H]3CC=C4C[C@@H](N5CCCC5)CC[C@]4(C)[C@H]3CC[C@@]21C`, for which the GI50 in assay [1] and in assay [2] was > 100 µM (inactive) each time.

`Clc1ccc(-c2nn3c(-c4ccncc4)nnc3s2)cc1`: the GI50 in assay [1] and in assay [2] was > 100 µM (inactive) each time.

For the molecule `Cc1cc2nc3c(N)nn(CCN(C)C)c3nc2cc1C`, the GI50 is 50.8 µM (inactive) in assay [1] and 40.2 µM (inactive) in assay [2].

Take `CCCCn1c(C)c(C(=O)CC)c(C(=O)NCCN2CCN(c3ccccc3Cl)CC2)c1C`: the GI50 in assay [1] is 16.2 µM (inactive); in assay [2], 23.5 µM (inactive).

For `Cn1c(O)c(C2=Nc3ccccc3C2=O)c2ccccc21`, the GI50 in assay [1] and in assay [2] was > 100 µM (inactive) in each case.

Consider `OC1(c2ccc(Cl)cc2)c2c(ccc3c2OCO3)C2=NCCN21` (centres undefined), for which the values for the GI50 in assay [1] and in assay [2] were 28.6 µM (inactive) and 20.8 µM (inactive), respectively.

For the molecule `NNC(=O)c1ccc(OCc2nc3ccccc3[nH]2)cc1`, the GI50 is > 100 µM (inactive) in assay [1] and 28.1 µM (inactive) in assay [2].

For `CCCCCCCCSC1=C(Cl)C(=O)C(OC)=C(OC)C1=O`, the GI50 in assay [1] was 3.82 µM (inactive); in assay [2], 20.7 µM (inactive).

Regarding `O=C1OC2(C(F)(F)F)Oc3ccccc3CN2C12CCCCC2` (centres undefined), the GI50 in assay [1] is 29.1 µM (inactive).

In the case of `C#C[C@]1(O)CC[C@H]2[C@@H]3CCC4=C/C(=N\OCCN5CCCCC5)CC[C@]4(C)[C@H]3CC[C@@]21C`, the values for the GI50 in assay [1] and in assay [2] were 1.66 µM (inactive) and 3.53 µM (inactive), respectively.

With `CN(C)C(=O)OC1=CC2CCC(C1)N2C` (centres undefined), the GI50 in assay [1] and in assay [2] was > 100 µM (inactive) each time.

Turning to `CCOC(=O)CCC(NC(=O)OCc1ccccc1)C(=O)NC(CCC(=O)OCC)C(=O)NN` (centres undefined) (Cbz-Glu(OEt)-Glu(OEt)-NHNH2; configuration not given here), the GI50 in assay [1] and in assay [2] was > 100 µM (inactive) throughout.

For the molecule `O=C(c1ccco1)C1CC(c2ccc3ccccc3c2O)=NN1` (centres undefined), the GI50 in assay [1] was 59.4 µM (inactive); in assay [2], > 100 µM (inactive).

On to `NC1CNC(=O)c2c(Cl)sc(Cl)c21` (centres undefined), for which the GI50 in assay [1] and in assay [2] was > 100 µM (inactive) in each case.

In the case of `COc1cc(/C=N/N=C(\N)NO)cc(OC)c1OC`, the GI50 in assay [2] is 42.2 µM (inactive).

Turning to `CC(C)CNC(=O)Cn1c2c(c3ccccc31)CCCC2`, the GI50 in assay [1] is 54 µM (inactive); in assay [2] it was 50.8 µM (inactive).

As to `O=c1c2c(F)c(F)c(F)c(F)c2sc2nccn12`, the values for the GI50 in assay [1] and in assay [2] were 14.4 µM (inactive) and 31.3 µM (inactive), respectively.

On to `CSc1nc(-c2ccc(C)cc2)c(C#N)c(=O)[nH]1`, for which the GI50 in assay [2] is > 100 µM (inactive).

In the case of `Cn1nc(-c2ccc(S(=O)(=O)N/C(=N/c3ccc(Cl)cc3)NN)s2)cc1C(F)(F)F`, the GI50 in assay [1] is 14.2 µM (inactive).

As to `COc1ccc(C2NC(N)=C(C#N)C3=C2C(C)CCC3)cc1OC` (centres undefined), the GI50 in assay [1] is > 100 µM (inactive); in assay [2], 74.3 µM (inactive).

Consider `COc1cc(/C=C2\N=C(c3ccccc3)N(c3ccc(S(=O)(=O)Nc4nccs4)cc3)C2=O)ccc1O`, for which the GI50 in assay [2] was > 100 µM (inactive).

With `CC1CN=C(Nc2ccc(F)c(Cl)c2)S1` (centres undefined), the GI50 in assay [1] and in assay [2] was > 100 µM (inactive) in each case.

Turning to `CCCCNC(=O)Nc1c(C(N)=O)c2n(c1C(=O)OCC)CCCCC2`, the GI50 in assay [2] was 64.9 µM (inactive).

As for `CC[S+]1C2=C(CC(C)(C)CC2=O)[N-]c2ccccc21` (centres undefined), the GI50 in assay [1] was > 100 µM (inactive); in assay [2] it was 78.3 µM (inactive).

For the molecule `O=C1NN=C2C=C(c3ccc(Cl)cc3)CC(c3cccc(Cl)c3)C12` (centres undefined), the GI50 in assay [1] was 23.4 µM (inactive); in assay [2], 19.9 µM (inactive).

With `O=C(N/C(=C\c1ccccc1)C1Nc2ccccc2C(=O)O1)c1ccccc1` (centres undefined), the GI50 in assay [1] was 23.7 µM (inactive); in assay [2] it was 30.3 µM (inactive).

Take `NS(=O)(=O)c1cc(C(=O)O)c(Cl)c([N+](=O)[O-])c1Cl`: the GI50 in assay [1] and in assay [2] was > 100 µM (inactive) each time.

As for `COc1ccc(C2=C(OC(=O)N(C)C)c3cccn3-c3cc(Cl)ccc3S2)cc1`, the GI50 in assay [1] was > 10 µM (inactive).

With `CCOC1=NC(C(F)(F)F)(C(F)(F)F)N=C(/N=C(/N)N(C)C(C(C)C)P(=O)(OC(C)C)OC(C)C)O1` (centres undefined), the figures for the GI50 in assay [1] and in assay [2] were > 100 µM (inactive) and 61.4 µM (inactive), respectively.

`O=c1[nH]nc(-c2ccccc2)n1/N=C/c1ccco1`: the GI50 in assay [1] and in assay [2] was > 100 µM (inactive) throughout.

As to `C=C(C)C(O)C(O)C[C@@H](C)C1CC[C@]23C[C@]12CCC1[C@@]2(C)CCC(OC(C)=O)C(C)(C)C2CC(OC2OC(CO)C(O)C(O)C2O)[C@]13C` (some centres undefined), the GI50 in assay [1] was 17.3 µM (inactive); in assay [2], 21 µM (inactive).

As for `CC(C)C(=O)OCC1OC(n2c(Br)nc3c(=O)[nH]c(N)nc32)C(OC(=O)C(C)C)C1OC(=O)C(C)C` (centres undefined), the figures for the GI50 in assay [1] and in assay [2] were 41 µM (inactive) and 29 µM (inactive), respectively.

Turning to `NCCCC[C@H](N)C(=O)Nc1ccc(-c2nc3ccccc3s2)cc1Cl`, the GI50 in assay [1] is 4.46 µM (inactive); in assay [2], 16.3 µM (inactive).

The values are drawn from ChEMBL document CHEMBL1201862, “PubChem BioAssay data set” (2004).
